Measured values taken from ChEMBL document CHEMBL3994653, “Parallel fluorescent probe synthesis based on the large-scale preparation of BODIPY FL propionic acid” (Bioorg Med Chem Lett, 2017).

Molecular target: T1, Steroid hormone receptor ERR1 (Homo sapiens, UniProt P11474)
T1 sequence (P11474 whole entry): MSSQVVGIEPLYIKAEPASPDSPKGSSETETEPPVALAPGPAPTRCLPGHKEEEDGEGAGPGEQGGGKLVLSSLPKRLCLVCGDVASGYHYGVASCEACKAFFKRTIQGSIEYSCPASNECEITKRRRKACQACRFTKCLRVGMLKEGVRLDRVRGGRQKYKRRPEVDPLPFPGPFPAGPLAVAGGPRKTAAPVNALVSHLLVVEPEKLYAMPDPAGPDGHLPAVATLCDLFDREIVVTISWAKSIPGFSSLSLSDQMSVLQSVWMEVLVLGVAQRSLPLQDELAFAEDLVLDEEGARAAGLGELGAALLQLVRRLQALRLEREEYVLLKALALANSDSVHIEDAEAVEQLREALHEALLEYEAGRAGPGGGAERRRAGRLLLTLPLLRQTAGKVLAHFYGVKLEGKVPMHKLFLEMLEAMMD
Test: Inverse agonist activity at GAL4-fused human ERRalpha expressed in HEK293 cells assessed as inhibition of transcriptional activity after 20 hrs by luciferase reporter gene assay
Assay type: cell-based

CC(=O)c1ccc(N2CCN(C(=O)c3cc4c(C)nn(Cc5cccc(OCc6ccc(CNC(=O)CCC7=[N+]8C(=Cc9c(C)cc(C)n9[B-]8(F)F)C=C7)cc6)c5)c4s3)C[C@H]2C)nc1 showed an IC50 of 170 nM.

Work on CC(=O)c1ccc(N2CCN(C(=O)c3cc4c(C)nn(Cc5cccc(OCCCCCNC(=O)CCC6=[N+]7C(=Cc8c(C)cc(C)n8[B-]7(F)F)C=C6)c5)c4s3)C[C@H]2C)nc1 yielded an IC50 of 80 nM.

CC(=O)c1ccc(N2CCN(C(=O)c3cc4c(C)nn(Cc5cccc(OCC6CCN(C(=O)CCC7=[N+]8C(=Cc9c(C)cc(C)n9[B-]8(F)F)C=C7)C6)c5)c4s3)C[C@H]2C)nc1 (some centres not stated) was tested, and the IC50 was 770 nM.

CC(=O)c1ccc(N2CCN(C(=O)c3cc4c(C)nn(Cc5cccc(OCCCNC(=O)CCC6=[N+]7C(=Cc8c(C)cc(C)n8[B-]7(F)F)C=C6)c5)c4s3)C[C@H]2C)nc1 showed an IC50 of 490 nM.

With CC(=O)c1ccc(N2CCN(C(=O)c3cc4c(C)nn(Cc5cccc(OCCOCCOCCOCCNC(=O)CCC6=[N+]7C(=Cc8c(C)cc(C)n8[B-]7(F)F)C=C6)c5)c4s3)C[C@H]2C)nc1 the IC50 was 570 nM.

Compound CC(=O)c1ccc(N2CCN(C(=O)c3cc4c(C)nn(Cc5cccc(OCCOCCNC(=O)CCC6=[N+]7C(=Cc8c(C)cc(C)n8[B-]7(F)F)C=C6)c5)c4s3)C[C@H]2C)nc1 has an IC50 of 280 nM.

Work on CC(=O)c1ccc(N2CCN(C(=O)c3cc4c(C)nn(Cc5cccc(OCC6CCN(C(=O)CCC7=[N+]8C(=Cc9c(C)cc(C)n9[B-]8(F)F)C=C7)CC6)c5)c4s3)C[C@H]2C)nc1 yielded an IC50 of 210 nM.

Compound COCCOc1cccc(Cn2nc(C)c3cc(C(=O)N4CCN(c5ccc(C(C)=O)cn5)[C@H](C)C4)sc32)c1 has an IC50 of 22 nM.

Compound CC(=O)c1ccc(N2CCN(C(=O)c3cc4c(C)nn(Cc5cccc(OCCCCNC(=O)CCC6=[N+]7C(=Cc8c(C)cc(C)n8[B-]7(F)F)C=C6)c5)c4s3)C[C@H]2C)nc1 has an IC50 of 170 nM.

CC(=O)c1ccc(N2CCN(C(=O)c3cc4c(C)nn(Cc5cccc(OCC6CN(C(=O)CCC7=[N+]8C(=Cc9c(C)cc(C)n9[B-]8(F)F)C=C7)CCO6)c5)c4s3)C[C@H]2C)nc1 (some centres not stated) showed an IC50 of over 1000 nM.

In the case of CC(=O)c1ccc(N2CCN(C(=O)c3cc4c(C)nn(Cc5cccc(OCCNC(=O)CCC6=[N+]7C(=Cc8c(C)cc(C)n8[B-]7(F)F)C=C6)c5)c4s3)C[C@H]2C)nc1, the IC50 is reported as 650 nM.

Compound CC(=O)c1ccc(N2CCN(C(=O)c3cc4c(C)nn(Cc5cccc(OCCOCCOCCNC(=O)CCC6=[N+]7C(=Cc8c(C)cc(C)n8[B-]7(F)F)C=C6)c5)c4s3)C[C@H]2C)nc1 has an IC50 of 390 nM.
